Data: patent US12108762B2, “Methods of controlling crop pests using aromatic amide insect repellents, methods of making aromatic amide insect repellents, and novel aromatic amide insect repellents” (priority 2020, dated 2024)
Entries after “also recorded” stand apart in the source; their conditions may differ.

Tests used:
Drosophila melanogaster [1] = experiment: One-choice (single-trap) olfactory trap assay; type: in vivo; conditions: for repellency compared with DEET, one-choice trap assay: 25 μl of 25% by weight in DMSO on filter paper, 10% ACV attractant, 6 hours (FIG. 10) and 24 hours (FIG. 13); for fly death during the 6-hour screen: starved flies
Procedure: (§1) The D. melanogaster assays served as a model for SWD repellency. Forty different aromatic amides were studied at a 25% concentration by weight in DMSO, and the fruit fly chemosensory behaviors in response thereto were characterized. […]
(§2) Flies were monitored throughout their life cycle. Five-day-old flies (10 male and 10 females) were selected per assay, and starved for a predetermined length of time (e.g., 20 hours). After starvation, two different assays were used to study the olfactory related responses.
FIG. 7A is a diagram of a single-trap olfactory assay. Flies 105 were placed in a cylindrical chamber 100 containing a trap 110. The trap 110 was fashioned from an upturned 1.5 ml micro-centrifuge tube where the tapered end was trimmed away. A pipette tip 120 was cut to form a funnel and inserted into the bottom of the inverted micro-centrifuge tube 110. Then, filter paper 130 was placed between the pipette tip 120 and tip of micro-centrifuge tube 110. The pipette tip 120 was placed so that entering flies could not make physical contact with the filter paper 130. The filter paper 130 was placed in this manner so that when the filter paper 130 was treated with the repellent solution, the flies would only be able to smell at a distance and should be repelled even in the presence of an attractant.
A 25 μl sample of test compound at 25% concentration was applied to the filter paper 130 in order to provide the odor source. At the bottom of the trap 110, 125 μl of 10% apple cider vinegar (ACV) was placed as an attractant. Trials were conducted for 24 hours to visualize the number of flies 105 entering the trap 110. Typically, flies that entered the trap 110 contacted the liquid ACV and died in the ACV. Flies were counted and recorded at 4, 6, and 24 hours. No control other than DEET was used for this experiment, because it was a single trap, comparing the number of flies 105 repelled by the repellent versus the number of flies 105 interacting with the attractant (ACV).
(§3) The different assays assigned results as follows. For the single-choice olfactory assay, the numbers of flies were counted according to (1) those that entered the trap, (2) those that stayed outside the trap and lived, and (3) those that died outside the trap. For the two-choice olfactory assay, the numbers of flies were counted according to (1) those that entered the control trap, (2) those that entered the trap containing the repellent, (3) those that stayed outside of both traps and lived, and (4) those that died outside the traps. For the gustatory assay, the numbers of flies were counted according to those that had (1) a red-colored abdomen, (2) a blue-colored abdomen, (3) a purple abdomen, and (4) no added color to their abdomen. A nonparametric Mann-Whitney U test was used to compare the statistical differences between assays using DEET and the same assays using one of the present repellents for all trials.

Drosophila melanogaster [2] = experiment: Two-choice trap olfactory assay; type: in vivo; conditions: for interaction with control trap in comparison with repellent-treated trap: low participation; for trap preference (control trap versus repellent-treated trap): DMSO control vs 25 μl of 25% by weight in DMSO
Procedure: as §1, §2
FIG. 7B is a diagram of a 2-choice trap olfactory assay. Two ACV traps 110a-b were prepared as above, in a cylinder 150 from upturned 1.5 ml micro-centrifuge tubes with the tapered end trimmed away, and a pipette 120a-b inserted into the inverted micro-centrifuge tube. In the cylinder 150, one trap 110a was treated with 25 μl of DMSO (as a control) on the filter paper 135, and the other trap 110b with the 25 μl of the 25% by weight solution of the test compound in DMSO applied to the filter paper 130. 125 μl of 10% ACV, diluted with water, was placed in the bottom of the traps 110a-b. Both traps contained filter paper as prepared in the one-trap assay. All trials were screened for 24 hours, and the number of flies 105 in each trap was counted. Positions of the traps (i.e., left or right, relative to the location of the chamber 150 in the room) were randomized. The number of flies 105 in each trap 110a and 110b were counted and recorded at 4, 6 and 24 hours.
as §3

[3] = one-choice trap, 25% concentration
[4] = one-choice trap, 25% concentration, 6 hours

Row | SMILES | repellency compared with DEET, one-choice trap assay (Drosophila melanogaster [1]) | fly death during the 6-hour screen (Drosophila melanogaster [1]; [4]) | participation in choosing either trap (Drosophila melanogaster [2]; 25% by weight, 6 hours) | trap preference (control trap versus repellent-treated trap) (Drosophila melanogaster [2]; 6 hours) | other results
1 | Cc1cccc(C(=O)N2CCCCC2)c1 [Compound 1mC] | more effective than DEET | no fly death | less overall participation | preference for the control trap | aversion (no flies entering the single-choice trap) (Drosophila melanogaster [1]; [3]): 100%; ranking among repellents in the one-choice assay (Drosophila melanogaster [1]; [3]): most effective repellents; repellency (Drosophila melanogaster [1]; [4]): significant repellency; average number of flies that chose a trap in 6 hours (Drosophila melanogaster [2]; 25% by weight, 20 flies per assay, 6 hours): 1 flies; interaction with control trap in comparison with repellent-treated trap (Drosophila melanogaster [2]; 25% by weight): more flies interacted with the control trap
2 | Cc1cccc(C(=O)N2CCN(C)CC2)c1 [Compound 1mE, 1-methyl-4-(3-methylbenzoyl)piperazine] | more effective than DEET | some fly death |  |  | 
3 | Cc1ccccc1C(=O)N1CCOCC1 [Compound 1oD] | more effective than DEET | some fly death | less overall participation | preference for the control trap | 
4 | Cc1ccccc1C(=O)N1CCN(C)CC1 [Compound 1oE] |  |  | less overall participation | preference for the control trap | interaction with control trap in comparison with repellent-treated trap (Drosophila melanogaster [2]; 25% by weight): more flies interacted with the control trap
5 | O=C(c1cccc(F)c1)N1CCCCC1 [Compound 2mC] | more effective than DEET |  |  |  | 
6 | O=C(c1ccccc1F)N1CCCC1 [Compound 2oB] |  |  | less overall participation | preference for the control trap | interaction with control trap in comparison with repellent-treated trap (Drosophila melanogaster [2]; 25% by weight): more flies interacted with the control trap
7 | O=C(c1ccccc1F)N1CCCCC1 [Compound 2oC] | more effective than DEET | no fly death |  |  | repellency (Drosophila melanogaster [1]; [4]): significant repellency
8 | O=C(c1ccccc1F)N1CCOCC1 [Compound 2oD] | more effective than DEET |  |  |  | 
9 | O=C(c1cccc(C(F)(F)F)c1)N1CCOCC1 [Compound 3mD] | more effective than DEET | some fly death |  |  | 
10 | O=C(c1ccccc1C(F)(F)F)N1CCCC1 [Compound 3oB] | more effective than DEET |  |  |  | 
11 | CN1CCN(C(=O)c2ccccc2C(F)(F)F)CC1 [Compound 3oE] | more effective than DEET |  |  |  | 
12 | O=C(c1cccc([N+](=O)[O-])c1)N1CCCCC1 [Compound 4mC] | more effective than DEET; also recorded: significantly better than DEET | all the flies were dead |  |  | average number of flies that entered the trap (Drosophila melanogaster [1]; one-choice trap, 25% concentration, 20 flies per assay, 6 hours): 5 flies; fly mortality (Drosophila melanogaster [1]; one-choice trap, 25% concentration, exposure in the gas phase): high mortality
13 | CN1CCN(C(=O)c2ccccc2[N+](=O)[O-])CC1 [Compound 4oE] | more effective than DEET | some fly death |  |  | 
14 | COc1cccc(C(=O)N2CCN(C)CC2)c1 [Compound 5mE] |  |  | less overall participation | preference for the control trap | 
15 | COc1ccccc1C(=O)N1CCCCC1 [Compound 5oC] | more effective than DEET |  |  |  | 
16 | Nc1cccc(C(=O)N2CCCC2)c1 [Compound 6mB] |  |  | higher mean participation | preferred the control trap | 
17 | CN1CCN(C(=O)c2cccc(N)c2)CC1 [Compound 6mE] | more effective than DEET |  |  |  | 
18 | Nc1ccccc1C(=O)N1CCCCC1 [Compound 6oC] | more effective than DEET |  |  |  | 
